The numbers were not newly measured in US5010056A, “Pharmaceutical composition for intranasal administration, comprising GH-releasing hormone, a cholinergic agonist and optionally a bile salt” (priority 1987, dated 1991), which cites them from elsewhere.

Where two headings read alike, the source gives them in different places.

For series [1] the following is noted: orally administered.
Another series has as its system GH secretion. The settings on record: previous administration of an oral dose.

Consider `CN(C)C(=O)Oc1ccc[n+](C)c1` [pyridostigmine], for which the bioavailability entry in series [1] was “low”. Besides, the “effect on GH secretion and on the effect of intravenously injected GHRH” value in the series with GH secretion is “able to stimulate GH secretion and significantly increase the effect of intravenously injected GHRH”.
For the compound GH-releasing hormone [GHRH], the bioavailability entry (nasal administration) is “low”. The “doses required nasally to obtain comparable effects, relative to parenteral doses” value (nasal versus parenteral administration) is given as 300-1000 times the parenteral doses.
